Measurements from patent publication US6433008B1, “α-aryl-N-alkylnitrones and pharmaceutical compositions containing the same” (Centaur Pharmaceuticals, Inc., priority 1997, dated 2002).

Tested on: MBP-induced EAE in Lewis rats
Test: Prevention of MBP-induced experimental allergic encephalomyelitis (EAE)
Format: in vivo
Conditions: 100 mg/kg b.i.d. oral gavage, day 3 to day 16 post-inoculation
Experimental: Experimental allergic encephalomyelitis (EAE) induced by injection of guinea pig myelin basic protein (MBP) or MBP peptide fragments is reported to be a useful model for MS. See, for example, D. E. McFarlin et al., “Recurrent Experimental Allergic Encephalomyelitis in the Lewis Rat,” The Journal of Immnunology, 113(2): 712-715 (1974).
Female, Lewis rats of 8 weeks of age (180-250 g) were weighed and then given two intradermal injections (0.1 mL each) of 0.4 mg of M. tuberculin in 0.1 mL incomplete Freunds adjuvant and […] of myelin basic protein in 0.1 mL of saline into the base of the tail. Animals were weighed daily and given a clinical score beginning on Day 8, post inoculation, according to the following criteria:
2.5=Hind limb paralysis and front limb weakness
3.0=Hind and front limb paralysis
4.0=Moribund state or death
On day 3, post-inoculation animals were administered b.i.d either a test compound (100 mg/kg) or 1% methylcellulose vehicle by oral gavage up to and including day 16.

Structure (SMILES)	CNS inflammatory deficit in acute EAE animals (clinical score)
CCOc1ccc(C=[N+]([O-])C(C)(C)C)cc1 [Example 4, α-(4-Ethoxyphenyl)-N-tert-butylnitrone]	did not significantly reduce the CNS inflammatory deficit
CCCC[N+]([O-])=Cc1ccc(OCC)cc1 [Example 10, α-(4-ethoxyphenyl)-N-n-butylnitrone]	did not significantly reduce the CNS inflammatory deficit
CCOc1ccc(C=[N+]([O-])C2CCCCC2)cc1OC [Example 15, α-(4-Ethoxy-3-methoxyphenyl)-N-cyclohexylnitrone]	did not significantly reduce the CNS inflammatory deficit
COc1cc(C=[N+]([O-])C(C)(C)C)ccc1OCc1ccccc1 [Example 5, α-(4-Benzyloxy-3-methoxyphenyl)-N-tert-butylnitrone]	did not significantly reduce the CNS inflammatory deficit
CCOc1ccccc1C=[N+]([O-])C(C)(C)C [Example 7, α-(2-Ethoxyphenyl)-N-tert-butylnitrone]	did not significantly reduce the CNS inflammatory deficit
CCOc1cc(C=[N+]([O-])C(C)C)ccc1OC [Example 17, α-(3-Ethoxy-4-methoxyphenyl)-N-isopropyinitrone]	reduced the CNS inflammatory deficit
CCCCCCOc1ccc(C=[N+]([O-])C2CCCCC2)cc1OCC [Example 22, α-(3-Ethoxy-4-hexyloxyphenyl)-N-cyclohexylnitrone]	reduced the CNS inflammatory deficit
CCOc1cc(C=[N+]([O-])C(C)(C)C)ccc1OC [Example 3, α-(3-Ethoxy-4-methoxyphenyl)-N-tert-butylnitrone]	reduced the CNS inflammatory deficit
CC(C)(C)[N+]([O-])=Cc1ccc(OCc2ccccc2)cc1 [Example 41, α-(4-Benzyloxyphenyl)-N-tert-butylnitrone]	reduced the CNS inflammatory deficit
CCCCCCCCOc1ccc(C=[N+]([O-])C(C)(C)C)c(F)c1 [Example 29, α-(2-Fluoro-4-octyloxyphenyl)-N-tert-butylnitrone]	did not significantly reduce the CNS inflammatory deficit
CCOc1cc(C=[N+]([O-])C(C)(C)CC(C)(C)C)ccc1OC [Example 45, α-(3-Ethoxy-4-methoxyphenyl)-N-tert-octylnitrone]	reduced the CNS inflammatory deficit
[O-][N+](=Cc1ccc(OCc2ccccc2)cc1)C1CCCC1 [Example 42, α-(4-Benzyloxyphenyl)-N-cyclopentylnitrone]	reduced the CNS inflammatory deficit
CCOc1ccc(C=[N+]([O-])C2CCCCC2)cc1 [Example 11, α-(4-Ethoxyphenyl)-N-cyclohexylnitrone]	reduced the CNS inflammatory deficit

Tested on: rats injected with Aβ(25-35) and ibotenate into the hippocampus
Test: Reduction of cognitive defects due to Aβ-peptide/ibotenate (Morris water maze)
Format: in vivo, Male Sprague-Dawley rats
Conditions: 10 mg/kg oral gavage daily, Morris water maze 9-11 days after injection
Experimental: The procedures employed in this example are similar to those described in Dornan et al., NeuroReport 5, 165-168 (1993). Male Sprague-Dawley rats (200-300 g) were weighed and given 10 mg/kg of α-(2-ethoxyphenyl)-N-tert-butylnitrone or 1% methylcellulose by oral gavage. One hour later, the rats were stereotaxically injected into the CA1 region of their hippocampus with 8 nmol of Aβ(25-35) and 6 nmol of ibotenate per side (coordinates from bregma −3.6=AP, ±2.2=ML, −3.0=DV from the top of the dura). Controls were injected with PBS (pH 7.4). All injections were 1.5 μL in volume. The animals receiving PBS were orally dosed with 1% methylcellulose. Oral dosing continued daily until the end of the Morris water maze testing.
Nine to eleven days following injection, animals were tested in a Morris water maze task to measure spatial memory and learning. Animals were given three days of testing with four to six trials per day. The last trial on the fourth day was a probe trial where the platform was removed and time in quadrant and annulae crossings were determined. Following the behavioral testing, animals were perfused with 10% neutral formalin. The brain was post-fixed for 1 week in 10% formalin and then sliced for histological evaluation. Image analysis of cresyl violet staining was used to compare the neuronal loss (lesion volume) in the hippocampus between groups.

Structure (SMILES)	Aβ peptide/ibotenate-induced learning deficit
CCOc1ccccc1C=[N+]([O-])C(C)(C)C [Example 7, α-(2-Ethoxyphenyl)-N-tert-butylnitrone]	reduced the Aβ peptide/ibotenate-induced learning deficit

Tested on: MRL/MpJ Fas^lpr mice
Test: Reduction of cognitive deficits in autoimmune mice (T-maze task)
Format: in vivo
Conditions: 100 mg/kg oral gavage daily for 8 to 9 weeks, Fas^lpr mice tested at 4 months of age
Experimental: MRL/MpJfas^lpr (“mutant mice” or “Fas^lpr”) strains of mice have been described as useful models of Lupus due to their autoimmune lymphoproliferative pathology. In particular, the mutant mice show a cognitive deficit at approximately four months of age, which is not observed at two months of age. See, for example, Forster et al., 1988, Behav. Neural Biology, 49, 139-151.
In the experiment, male MRL/MpJ Fas^lPr and normal MRL/MpJ++ mice of 8 weeks of age were weighed and administered 100 mg/kg of the test compound (either α-(2-ethoxyphenyl)-N-tert-butylnitrone or α-(4-ethoxyphenyl)-N-cyclohexylnitrone) or 1% methylcellulose vehicle by oral gavage daily for 8 to 9 weeks. At 4 months of age, the mice were tested for avoidance, discrimination, session criteria and acquisition in a one day T-maze task with a maximum of 25 trials. Criteria was met with four of five trials correct with the last two correct trials being consecutive in avoidance and discrimination.

Structure (SMILES)	acquisition in T-maze task	avoidance in T-maze task
CCOc1ccccc1C=[N+]([O-])C(C)(C)C [Example 7, α-(2-Ethoxyphenyl)-N-tert-butylnitrone]	reduced acquisition values	acquired avoidance skills earlier than untreated mutant mice
CCOc1ccc(C=[N+]([O-])C2CCCCC2)cc1 [Example 11, α-(4-Ethoxyphenyl)-N-cyclohexylnitrone]	reduced acquisition values	acquired avoidance skills earlier than untreated mutant mice
